Measured values as given in patent US10329304B2, “Compounds and methods for inhibition of hedgehog signaling and phosphodiesterase” (Vanderbilt University, priority 2014, dated 2019).
Entries after “also recorded” stand apart in the source; their conditions may differ. Where two headings read alike, the source gives them in different places.

What was measured:
[1] = test system: total cellular cAMP levels; assay: cAMP assay (total cellular cAMP, EIA chemiluminescence); assay type: cell-based
Procedure: Shh-Light2 cells were seeded in a 96-well plate and incubated overnight. Varying concentrations of Rolipram or Eggmanone (0.013 uM-30 uM) or DMSO only were added to the cells in the absence of serum and incubated 30 minutes, at which time forskolin was added for a final concentration of 1 uM. After an additional 15 minutes, cells were washed with PBS and assayed for cAMP levels using EIA based chemiluminescence kit according to the manufacturer's protocol (Cell Signaling Technologies, Danvers, Mass.).

otic kino-cilia motility = assay: Video-microscopy of zebrafish otic kino-cilia; assay type: in vivo; conditions: 2 μM
Text: For visualizing ciliary beating, live embryos (20 hpf) were removed from their chorion, mounted in SeaPlaque low-melting agarose (Biowhittaker Molecular Applications) (1.0% in embryo medium) in microwells of glass-bottom culture dishes (MatTek), and covered with embryo medium. Movies were acquired by using OPENLAB software (Improvision) at 55 frames per second with a 63×DIC objective on a Zeiss Axiovert 200 inverted fluorescence microscope equipped with a Retiga Exi Fast camera (Qimaging). Kymographs were obtained by drawing a line across a ciliary trajectory by using ImageJ software (National Institutes of Health, developed by W. Rasband) and Multiple-Kymograph plugin (developed by J. Rietdorf and A. Seitz).

PKA activation = assay: Immunostaining of autophosphorylated PKA catalytic subunit in NIH3T3 cells; assay type: cell-based; conditions: SAG-stimulated NIH3T3 cells, Egm 5 μM, Rolipram 10 μM
Procedure: NIH3T3 cells were plated on Poly-D-Lysine-coated glass coverslips and were cultured at 37° C., 5% CO2 in DMEM medium containing 10% fetal bovine serum until reaching 75% confluency. For one set of experiments, cells were then transfected with VSV-tagged PDE4D3 plasmid (gift from Miles Houslay, University of Glasgow, Scotland, UK) using Fugene6 transfection reagent (Roche, Indianapolis, Ind.) per manufacturer's protocol. Afterward, cell medium was replaced with DMEM/0.5% FBS containing either 5 μM eggmanone or DMSO and incubated overnight at 37° C., 5% CO2. Cells were fixed in 4% PFA at room temperature for 10 minutes prior to permeabilization, blocking, and staining with primary antibodies against Arl13b (gift of Tamary Caspary, Emory University, Atlanta, Ga.) and VSV (AbCam, Cambridge, Mass.). Fluorescent immunocytochemistry was performed using species-specific, secondary antibodies (Jackson Immunoresearch, West Grove, Pa.). For additional immunocytochemistry experiment, cells were treated with 20 nM SAG in the presence or absence of 5 uM Eggmanone. After overnight incubation, cells were washed with PBS, fixed for 10 minutes in 4% PFA, permeabilized 20 minutes at −20C with cold methanol, blocked with PBS/1% BSA, and incubated with primary antibodies to phospho-PKA catalytic domain Thr197 (Cell Signaling, Danvers, Mass.) and then to Arl13b. An additional overnight blocking step using unconjugated rabbit IgG was required between primary antibody incubations since both antibodies were produced in rabbit. Fluorescent conjugated secondary antibodies were used for visualization. Data analysis was performed in part through the use of the VUMC Cell Imaging Shared Resource.
Using ImageJ software (National Institutes of Health, developed by W. Rasband), a region of interest was created using the magic wand tool on Arl13b channel and transposed to the Gli2 channel, and integrated density was measured and reported as arbitrary units (a.u.). For phospho-PKA, using ImageJ, a line selection tool was used to select a line projected through the length of the primary cilia and an equal length beyond. The intensity values were potted and the cumulative florescence (area under the curve) was calculated for three cilia, blindly, for each treatment. These values for cilia and pericilia domain were analyzed by a two tailed students t-test. For correlation analysis, correlation coefficient for intensity of gamma-tubulin and phosphor-PKA were calculated and compared among treatments with students t-test.

IFT88 localization = assay: IFT88 immunostaining in NIH3T3 cells; assay type: cell-based; conditions: EGM 5 μM; ciliobrevin D 100 μM
Text: To investigate whether the disruption of the cilium-to-nucleus trafficking of Gli2 by eggmanone was due to a general defect in the retrograde transport within the primary cilium, we compared the effect of the cytoplasmic dynein motor inhibitor ciliobrevin D with the effect of eggmanone on the intraflagellar transport protein 88 (IFT88) trafficking^19. […] Thus, the effects of eggmanone on Gli2 trafficking is specific, rather than an indirect consequence of a global defect in ciliary transport machinery.

[2] = test system: PDE4D3-induced Hh reporter activity; assay: Hh reporter activity in Shh-Light2 cells transfected with PDE4D3; assay type: cell-based; conditions: 5 μM
Procedure: For Hh signaling assays, Shh-Light2 cells stably transfected with Gli-Luciferase reporter construct were used along with Shh-conditioned media, as previously described^7. Alternatively, 3 μM purmorphamine or 20 nM Smoothened agonist (SAG) (Santa Cruz Biotechnology, Santa Cruz, Calif.) was used to induce Hh signaling. Reporter cells were seeded in 96-well plates and incubated overnight with the various concentrations of eggmanone and Shh-conditioned media. To assess the effects of overexpression of Gli-2, PDE4D3 and DN-PDE4D3 on Hh signaling, mammalian expression vectors containing these constructs were transfected into Shh-Light2 cells in 96-well plates using Fugene6 (Roche), according to manufacturer's instructions. The transfected or Shh-stimulated cells were incubated overnight with the various concentrations of compound. The cells were then lysed, and cell extracts were subjected to Steady-Glo luciferase assay (Promega) according to manufacturer's instructions. The results were normalized to cell titer, as determined using Cell Titer-Glo luminescence assay (Promega).

11 PDE families = assay: In vitro PDE activity assays across 11 PDE families; assay type: biochemical
Procedure: In vitro PDE profiling and dose-response assays were performed by BPS Biosciences (San Diego, Calif.). Kinetic Mechanism of inhibition studies were conducted by Millipore (St. Louis, Mo.). In brief, the PDE assay measures fluorescent polarization of FAM-AMP as FAM-cAMP is converted to FAM-AMP by PDE), the binding agent.
A series of dilutions of the test compound were prepared with 10% DMSO in assay buffer and 5 μl of the dilution was added to a 50 μl reaction so that the final concentration of DMSO is 1% in all of reactions. All of the PDE enzymatic reactions were conducted in duplicate at room temperature for 60 minutes in a 50 μl mixture containing PDE assay buffer (10 mM Tris-HCl, pH7.4, 10 mM MaCl2, 0.05% Tween 20), 100 nM FAM-cAMP, a PDE enzyme and a test compound.
After the enzymatic reaction, 100 μl of a binding solution (1:100 dilution of the binding agent, which contains the nano beads that recognize FAM-AMP, with the binding agent diluent) was added to each reaction and the reaction was performed at room temperature for 60 minutes. Fluorescence intensity was measured at an excitation of 485 nm and an emission of 528 nm using a Tecan Infinite M1000 microplate reader. Assays done by Millipore were conducted similarly with changes noted below: […]

| Compound | Total cellular cAMP levels [1] | Total cellular cAMP levels ([1]; listed as Egm) | Otic kino-cilia movement (otic kino-cilia motility) | Otic kino-cilia movement (otic kino-cilia motility; listed as Egm) | PKA activation (phospho-PKA-C staining), spatial distribution (PKA activation) | PKA activation (phospho-PKA-C staining), spatial distribution (PKA activation; listed as Egm) | IFT88 localization in the cilium (IFT88 localization) | Hh reporter activity induced by wild-type PDE4D3 overexpression [2] | Inhibition across PDE families (11 PDE families; 10 μM (10 and 50 μM)) | Total cellular cAMP levels ([1]; listed as eggmanone) | Otic kino-cilia movement (otic kino-cilia motility; listed as eggmanone) | PKA activation (phospho-PKA-C staining), spatial distribution (PKA activation; listed as eggmanone) | Hh reporter activity induced by wild-type PDE4D3 overexpression ([2]; listed as eggmanone) | Inhibition across PDE families (11 PDE families; 10 μM (10 and 50 μM in b110)) | Inhibition across PDE families (11 PDE families; 10 μM (10 and 50 μM in b110), listed as eggmanone) |
| --- | --- | --- | --- | --- | --- | --- | --- | --- | --- | --- | --- | --- | --- | --- | --- |
| C=C(C)Cn1c(SCC(=O)c2cccs2)nc2sc3c(c2c1=O)CCCC3 [EGM, Eggmanone] | without raising total cellular cAMP content | only caused small increase at concentrations above those required to inhibit Hh signaling | cilium movement is markedly reduced | cilia movement is markedly reduced | increases local PKA activation at the base of the primary cilia; also recorded: spatially restricted activation of PKA around the centrosome | increases local PKA activation at the base of the primary cilia; also recorded: increases local PKA activation at the basal body | did not affect IFT88 localization | abolished | significantly inhibited only the PDE4 class | – | – | – | – | – | – |
| C=C(C)Cn1c(SCC(=O)c2cccs2)nc2sc3c(c2c1=O)CCCC3 [Eggmanone, 3-(2-methylallyl)-2-((2-oxo-2-(thiophen-2-yl)ethyl)thio)-5,6,7,8-tetrahydrobenzo[4,5]thieno[2,3-d]pyrimidine-4(3H)-one] | had no effect on total cellular cAMP content; also recorded: did not significantly increase total cAMP levels | – | markedly less motile | – | significantly increased the intensity of PKA activation almost exclusively at the basal body | – | had no effect on IFT88 localization or cilium morphology | abrogated; also recorded: abolished | – | did not increase total cAMP levels | markedly less motile | significantly increased the intensity of PKA activation almost exclusively in the basal body | abrogated | significantly inhibited only the PDE4 family | significantly inhibited only the cAMP specific PDE4 family |
